Data reported in patent publication USRE46630E1, “Substituted 4-pyridones and their use as inhibitors of neutrophil elastase activity” (Boehringer Ingelheim International GmbH, priority 2012, dated 2017).

target: T1, Human neutrophil elastase (Homo sapiens, UniProt P08246); test: Human Neutrophil Elastase Assay; type: biochemical; details: Neutrophil Elastase assay; substrate MeOSuc-Ala-Ala-Pro-Val-AMC 250 μM; 15 min preincubation, 60 min incubation at room temperature; pH 7.5
T1 construct: purchased Calbiochem 324681
T1 sequence (P08246 30-267): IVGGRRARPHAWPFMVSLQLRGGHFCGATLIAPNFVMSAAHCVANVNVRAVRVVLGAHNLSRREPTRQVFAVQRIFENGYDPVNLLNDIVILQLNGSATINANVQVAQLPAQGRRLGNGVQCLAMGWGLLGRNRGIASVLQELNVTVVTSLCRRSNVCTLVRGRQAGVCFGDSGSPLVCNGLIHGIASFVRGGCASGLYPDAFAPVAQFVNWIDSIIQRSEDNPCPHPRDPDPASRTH
Experimental: Human Neutrophil Elastase Assay
All other materials were of the highest grade commercially available.
The following buffers were used: Compound buffer: 100 mM Tris, 500 mM NaCl, adjusted to pH 7.5; Assay buffer: 100 mM Tris, 500 mM NaCl, adjusted to pH 7.5, containing 0.01% BSA.
Assay conditions: Test compounds were prediluted in DMSO and subsequently in compound buffer (5% DMSO final). […] After inactivation of the enzyme, fluorescence intensities were measured at 380 nm excitation and 460 nm emission wavelengths.
Each plate contains wells with a high value control (DMSO+enzyme+substrate) and wells with a low value control (DMSO+inactivated enzyme+substrate). […] Means of low values were taken as 0%, means of high values as 100%.

First: Cc1c(-c2cccc(C(F)(F)F)c2)c(=O)c(C(=O)NCc2ccncc2)cn1Cc1ccc(C#N)cc1 [Example 1.50]
Second: Cc1c(-c2cccc(C(F)(F)F)c2)c(=O)c(C(=O)NCc2ccc(S(C)(=O)=O)cc2)cn1Cc1ccncc1 [Example 2.11]
The IC50 of the first is 28-fold lower: 1.4 nM for the first, 38.9 nM for the second.

Compared with COc1cc(C#N)ccc1Cn1cc(C(=O)NCc2ccc(S(C)(=O)=O)cc2)c(=O)c(-c2cccc(C(F)(F)F)c2)c1C [Example 2.6], COc1cc(C#N)ccc1Cn1cc(C(=O)NCc2ccc(S(C)(=O)=O)cn2)c(=O)c(-c2cccc(C(F)(F)F)c2)c1C [Example 4.7] is lower in IC50: 1.6 nM for the first, less than 1 nM for the second.

Compared with Cc1c(-c2cccc(C(F)(F)F)c2)c(=O)c(C(=O)NCC2(O)CC2)cn1C(C)c1ccc(C#N)cn1 (stereo not shown) [Example 47.7], Cc1c(-c2cccc(C(F)(F)F)c2)c(=O)c(C(=O)NCCF)cn1C(C)c1ccc(C#N)cn1 (stereo not shown) [Example 47.6] is 2.5-fold lower in IC50: 30.1 nM for the first, 12 nM for the second. The second is the more potent here.

First: CNC(=O)c1cn(C(C)c2ccc(C#N)cc2)c(C)c(-c2cccc(C)c2)c1=O (stereo not shown) [Example 29]
Second: CNC(=O)c1cn(C(C)c2ccc(C#N)cc2)c(C)c(-c2ccc(F)c(C(F)(F)F)c2)c1=O (stereo not shown) [Example 30]
The IC50 of the first is 2.7-fold higher: 14.4 nM for the first, 5.3 nM for the second. The second is the more potent here.

First: Cc1c(-c2cccc(C(F)(F)F)c2)c(=O)c(C(=O)NCCO)cn1Cc1ccc(C#N)cc1 [Example 1.1, 1-(4-Cyano-benzyl)-6-methyl-4-oxo-5-(3-trifluoromethyl-phenyl)-1,4-dihydro-pyridine-3-carboxylic acid (2-hydroxy-ethyl)-amide]
Second: Cc1c(-c2cccc(C(F)(F)F)c2)c(=O)c(C(=O)NCCN(C)C)cn1Cc1ccc(C#N)cc1 [Example 1.6]
The IC50 of the first is 2-fold lower: 15.2 nM for the first, 30.5 nM for the second.

Compared with Cc1c(-c2ccnc(C(F)(F)F)c2)c(=O)c(C(=O)NC2COCC2O)cn1C(C)c1ccc(C#N)cc1 (stereo not shown) [Example 9.42], Cc1c(-c2ccnc(C(F)(F)F)c2)c(=O)c(C(=O)NC2CCCC2O)cn1C(C)c1ccc(C#N)cc1 (stereo not shown) [Example 9.41] is 3.3-fold higher in IC50: 29.9 nM for the first, 100 nM for the second. The first is the more potent here.

Going from Cc1c(-c2cccc(C(F)(F)F)c2)c(=O)c(C(=O)NCc2ccc(S(C)(=O)=O)cc2)cn1C1(c2ccc(C#N)cc2)CC1 [Example 45, 1-[1-(4-Cyano-phenyl)-cyclopropyl]-6-methyl-4-oxo-5-(3-trifluoromethyl-phenyl)-1,4-dihydro-pyridine-3-carboxylic acid 4-methanesulfonyl-benzylamide] to Cc1c(-c2cccc(C(F)(F)F)c2)c(=O)c(C(=O)NCc2ccc(S(C)(=O)=O)cc2)cn1[C@H](C)c1ccc(C#N)cc1 [Example 2.5A], the IC50 falls from 4.6 nM to less than 1 nM.

Cc1c(-c2cccc(C(F)F)c2)c(=O)c(C(=O)NC2CCNC2=O)cn1C(C)c1ccc(C#N)cc1 (stereo not shown) [Example 8.12] and Cc1c(-c2cccc(C(F)(F)F)c2)c(=O)c(C(=O)NC2CCNC2=O)cn1C(C)c1ccc(C#N)cc1 (stereo not shown) [Example 7.12] are within 1.5-fold of each other in IC50: 1.4 nM for the first, 1.5 nM for the second.

Going from Cc1c(-c2ccnc(C(F)(F)F)c2)c(=O)c(C(=O)NCC(C)(C)C)cn1C(C)c1ccc(C#N)cc1 (stereo not shown) [Example 9.52] to Cc1c(-c2ccnc(C(F)(F)F)c2)c(=O)c(C(=O)NCC(N)=O)cn1C(C)c1ccc(C#N)cc1 (stereo not shown) [Example 9.18], the IC50 falls from 420 nM to 7.5 nM (56-fold).

Cc1c(-c2cccc(C(F)F)c2)c(=O)c(C(=O)NCc2ccc(S(C)(=O)=O)cc2)cn1C(C)c1ccc(C#N)cc1 (single isomer, unassigned) [Example 11A] and Cc1c(-c2cccc(C(F)F)c2)c(=O)c(C(=O)NCc2ccc(S(C)(=O)=O)cc2)cn1Cc1ccc(C#N)cc1 [Example 6.10] cannot be ordered by IC50: less than 1 nM for the first, less than 1 nM for the second.

Going from CNC(=O)c1cn(Cc2ccc(C#N)nc2)c(C)c(-c2cccc(C(F)(F)F)c2)c1=O [Example 3.2] to CCOCCNC(=O)c1cn(Cc2ccc(C#N)cc2)c(C)c(-c2cccc(C(F)(F)F)c2)c1=O [Example 1.24], the IC50 falls from 53.7 nM to 10 nM (5.4-fold).

Going from Cc1c(-c2cccc(C(F)(F)F)c2)c(=O)c(C(=O)NC2CCN(C)C2=O)cn1Cc1ccc(C#N)cc1 (stereo not shown) [Example 1.57] to Cc1c(-c2cccc(C(F)(F)F)c2)c(=O)c(C(=O)NC2CCN(C)C2=O)cn1C(C)c1ccc(C#N)cc1 (stereo not shown) [Example 7.10], the IC50 falls from 6.8 nM to 2 nM (3.4-fold). The second is the more potent here.

CCOCCNC(=O)c1cn(C(C)c2ccc(C#N)cc2)c(C)c(-c2cccc(C(F)F)c2)c1=O (stereo not shown) [Example 8.24] and COCCNC(=O)c1cn(C(C)c2ccc(C#N)cc2)c(C)c(-c2cccc(C(F)F)c2)c1=O (stereo not shown) [Example 8.26] are within 1.5-fold of each other in IC50: 1.7 nM for the first, 1.8 nM for the second.

Going from Cc1c(-c2cccc(C(F)F)c2)c(=O)c(C(=O)NCc2cnn(C)c2)cn1C(C)c1ccc(C#N)cc1 (stereo not shown) [Example 8.28] to Cc1c(-c2cccc(C(F)F)c2)c(=O)c(C(=O)NCc2ccncc2)cn1C(C)c1ccc(C#N)cc1 (stereo not shown) [Example 8.20], the IC50 falls from 3.3 nM to 1 nM (3.3-fold).

Cc1c(-c2cccc(C(F)F)c2)c(=O)c(C(=O)NC2CNC(=O)C2)cn1C(C)c1ccc(C#N)cc1 (stereo not shown) [Example 8.7] and Cc1c(-c2cccc(C(F)F)c2)c(=O)c(C(=O)NC2CCN(C)C2=O)cn1C(C)c1ccc(C#N)cc1 (stereo not shown) [Example 8.10] are within 1.5-fold of each other in IC50: 1.7 nM for the first, 1.6 nM for the second.

First: Cc1c(-c2cccc(C(F)(F)F)c2)c(=O)c(C(=O)NCCS(C)(=O)=O)cn1C(C)c1ccc(C#N)cc1 (stereo not shown) [Example 7.6]
Second: Cc1c(-c2cccc(C(F)(F)F)c2)c(=O)c(C(=O)NC2COC2)cn1C(C)c1ccc(C#N)cc1 (stereo not shown) [Example 7.19]
The IC50 of the first is 3.4-fold lower: 1.2 nM for the first, 4.1 nM for the second. The first is the more potent here.

Cc1c(-c2ccnc(C(F)(F)F)c2)c(=O)c(C(=O)NCCC(C)O)cn1C(C)c1ccc(C#N)cc1 (stereo not shown) [Example 9.60] and COCCCNC(=O)c1cn(C(C)c2ccc(C#N)cc2)c(C)c(-c2ccnc(C(F)(F)F)c2)c1=O (stereo not shown) [Example 9.59] are within 1.5-fold of each other in IC50: 5.7 nM for the first, 7.5 nM for the second.

Cc1c(-c2cccc(C(F)(F)F)c2)c(=O)c(C(=O)NC(C)C#N)cn1C(C)c1ccc(C#N)cn1 (stereo not shown) [Example 47.16] and Cc1c(-c2cccc(C(F)(F)F)c2)c(=O)c(C(=O)NC2CCNC2=O)cn1C(C)c1ccc(C#N)cn1 (stereo not shown) [Example 47.2] are within 1.5-fold of each other in IC50: 6.2 nM for the first, 7.3 nM for the second.

Compared with Cc1c(-c2cccc(C(F)(F)F)c2)c(=O)c(C(=O)NCCC[N+](C)(C)C)cn1Cc1ccc(C#N)cc1 [Example 12.2, (3-{[1-(4-Cyano-benzyl)-6-methyl-4-oxo-5-(3-trifluoromethyl-phenyl)-1,4-dihydro-pyridine-3-carbonyl]-amino}-propyl)-trimethyl-ammonium chloride], Cc1c(-c2cccc(C(F)(F)F)c2)c(=O)c(C(=O)NCCCN(C)C)cn1Cc1ccc(C#N)cc1 [Example 1.4] is 1.8-fold lower in IC50: 49.5 nM for the first, 27.6 nM for the second. The second is the more potent here.

Compared with Cc1c(-c2cccc(C(F)(F)F)c2)c(=O)c(C(=O)NCC(=O)N2CCCC2)cn1Cc1ccc(C#N)cc1 [Example 1.54], Cc1c(-c2cccc(C(F)(F)F)c2)c(=O)c(C(=O)NCC2CCN(C(=O)CN(C)C)CC2)cn1Cc1ccc(C#N)cc1 [Example 1.7] is 2.6-fold lower in IC50: 41.5 nM for the first, 15.8 nM for the second. The second is the more potent here.

Going from Cc1c(-c2cccc(C(F)(F)F)c2)c(=O)c(C(=O)NCc2ccc(S(C)(=O)=O)cn2)cn1Cc1cccc(C#N)c1 [Example 4.4] to Cc1c(-c2cccc(C(F)(F)F)c2)c(=O)c(C(=O)NCc2cccnn2)cn1Cc1ccc(C#N)cc1 [Example 1.41], the IC50 falls from 63.8 nM to 3.2 nM (20-fold).

Going from Cc1cncc(-c2c(C)n(Cc3ccc(C#N)cc3)cc(C(=O)NCc3ccc(S(C)(=O)=O)cc3)c2=O)c1 [Example 6.4] to Cc1c(-c2cccc(C(F)(F)F)c2)c(=O)c(C(=O)NCc2ccc([S+](C)[O-])cc2)cn1Cc1ccc(C#N)cc1 (stereo not shown) [Example 1.10], the IC50 falls from 19.3 nM to 1.1 nM (18-fold).

Going from CCCS(=O)(=O)c1cc(C#N)ccc1Cn1cc(C(=O)NC)c(=O)c(-c2cccc(C(F)(F)F)c2)c1C [Example 25, 1-[4-Cyano-2-(propane-1-sulfonyl)-benzyl]-6-methyl-4-oxo-5-(3-trifluoromethyl-phenyl)-1,4-dihydro-pyridine-3-carboxylic acid methylamide] to Cc1noc(CNC(=O)c2cn(Cc3ccc(C#N)cc3)c(C)c(-c3cccc(C(F)(F)F)c3)c2=O)n1 [Example 1.67], the IC50 falls from 14 nM to 6.5 nM (2.2-fold).

Compared with Cc1c(-c2ccnc(C(F)(F)F)c2)c(=O)c(C(=O)NCC2CCCO2)cn1C(C)c1ccc(C#N)cc1 (stereo not shown) [Example 9.32], Cc1c(-c2ccnc(C(F)(F)F)c2)c(=O)c(C(=O)NCC(F)F)cn1C(C)c1ccc(C#N)cc1 (stereo not shown) [Example 9.22] is 2.7-fold lower in IC50: 19.4 nM for the first, 7.3 nM for the second. The second is the more potent here.

Going from Cc1c(-c2ccnc(C(F)(F)F)c2)c(=O)c(C(=O)NCc2cnn(C)c2)cn1C(C)c1ccc(C#N)cc1 (stereo not shown) [Example 9.19] to Cc1c(-c2ccnc(C(F)(F)F)c2)c(=O)c(C(=O)NC2CCN(C)C2=O)cn1C(C)c1ccc(C#N)cc1 (stereo not shown) [Example 9.12], the IC50 falls from 8.9 nM to 4.6 nM (1.9-fold). The second is the more potent here.

Cc1c(-c2ccnc(C(F)(F)F)c2)c(=O)c(C(=O)NC2(C#N)CC2)cn1C(C)c1ccc(C#N)cc1 (stereo not shown) [Example 9.45] and Cc1c(-c2ccnc(C(F)(F)F)c2)c(=O)c(C(=O)NC(C)C#N)cn1C(C)c1ccc(C#N)cc1 (stereo not shown) [Example 9.50] are within 1.5-fold of each other in IC50: 5.3 nM for the first, 4.6 nM for the second.

Compared with Cc1c(-c2cccc(C(F)(F)F)c2)c(=O)c(C(=O)NCC2CCN(C(=O)C[N+](C)(C)C)CC2)cn1Cc1ccc(C#N)cc1 [Example 12.4, {2-[4-({[1-(4-Cyano-benzyl)-6-methyl-4-oxo-5-(3-trifluoromethyl-phenyl)-1,4-dihydro-pyridine-3-carbonyl]-amino}-methyl)-piperidin-1-yl]-2-oxo-ethyl}-trimethyl-ammonium chloride], Cc1c(-c2cccc(C(F)F)c2)c(=O)c(C(=O)NCCO)cn1C(C)c1ccc(C#N)cc1 (stereo not shown) [Example 8.9] is 7.6-fold lower in IC50: 14.4 nM for the first, 1.9 nM for the second. The second is the more potent here.

same assay, conditions: eutomer versus distomer of the racemic example

Cc1c(-c2cccc(C(F)(F)F)c2)c(=O)c(C(=O)NCc2ccc(S(C)(=O)=O)cc2)cn1[C@H](C)c1ccc(C#N)cc1 [Example 2.5A] was tested, and the “neutrophil elastase inhibitory potency, one enantiomer compared with the other” value was “much more active”.
